The values below come from ChEMBL document CHEMBL1150318, “Discovery of a novel, orally active himbacine-based thrombin receptor antagonist (SCH 530348) with potent antiplatelet activity” (J Med Chem, 2008).

The target in data set [1] is T1, Proteinase-activated receptor 1 (Homo sapiens, UniProt P25116).
T1 sequence (P25116 whole entry): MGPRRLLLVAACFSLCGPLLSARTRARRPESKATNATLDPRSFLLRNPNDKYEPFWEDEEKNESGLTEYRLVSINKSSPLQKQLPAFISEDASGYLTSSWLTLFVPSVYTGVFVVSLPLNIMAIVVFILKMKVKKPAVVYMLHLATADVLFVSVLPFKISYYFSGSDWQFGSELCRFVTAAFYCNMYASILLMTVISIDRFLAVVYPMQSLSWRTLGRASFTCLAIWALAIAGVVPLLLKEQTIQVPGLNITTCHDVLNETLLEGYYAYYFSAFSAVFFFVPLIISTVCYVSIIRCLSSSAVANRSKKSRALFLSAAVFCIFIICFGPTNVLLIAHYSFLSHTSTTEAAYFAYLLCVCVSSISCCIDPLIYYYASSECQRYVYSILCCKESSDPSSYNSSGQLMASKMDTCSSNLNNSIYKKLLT
Put plainly: Displacement of [3H]haTRAP from PAR1 in human platelets. (In general: In a radioligand displacement assay an active substance lowers the binding of a labelled ligand.)

In data set [2] the test system is Platelet. Put plainly: Ex vivo inhibition of haTRAP-induced platelet aggregation in cynomolgus monkey at 0.5 mg/kg, po by impedance aggregometry. The data set is classed as functional, organism-based. On the set-up: dose 0.5 mg/kg. As to conditions: Macaca fascicularis.
Data set [3] relates to Platelet. In words: Ex vivo inhibition of haTRAP-induced platelet aggregation in cynomolgus monkey at 1 mg/kg, po after 6 hrs by impedance aggregometry. Particulars: Macaca fascicularis. The data set is classed as functional.
The test system of data set [4] is Platelet. In words: Ex vivo inhibition of haTRAP-induced platelet aggregation in cynomolgus monkey at 0.1 mg/kg, po after 24 hrs by impedance aggregometry. As to conditions: Macaca fascicularis. The data set is classed as functional.
Data set [5] is described as follows: AUC (0 to 24 hrs) in cynomolgus monkey at 0.1 mg/kg, po after 24 hrs. The data set is classed as ADME, organism-based, Macaca fascicularis. On the set-up: time < 24 hr, dose 0.1 mg/kg, route oral. As to conditions: plasma.
Data set [6] is described as follows: Cmax in cynomolgus monkey at 0.1 mg/kg, po after 24 hrs. It counts as ADME, organism-based, Macaca fascicularis. Set-up: dose 0.1 mg/kg, route oral. Particulars: in vivo.
The subject of data set [7] is Platelet. Put plainly: Ex vivo inhibition of haTRAP-induced platelet aggregation in cynomolgus monkey at 1 mg/kg, po after 24 hrs by impedance aggregometry. The data set is classed as functional. Particulars: Macaca fascicularis.
Data set [8] is described as follows: AUC (0 to 24 hrs) in cynomolgus monkey at 1 mg/kg, po after 24 hrs. It counts as ADME, organism-based, Macaca fascicularis. On the set-up: time < 24 hr, dose 1 mg/kg, route oral. As to conditions: plasma.
The nature of data set [9]: Cmax in cynomolgus monkey at 1 mg/kg, po after 24 hrs. Set-up: dose 1 mg/kg, route oral. The data set is classed as ADME, organism-based, Macaca fascicularis. Particulars: in vivo.

SMILES strings stand for the structures. Activity calls are given as the source filed them. The calls are words filed in the database; no cut-off is given here.

As for `CCOC(=O)N[C@@H]1CC[C@@H]2[C@@H](C1)C[C@H]1C(=O)O[C@H](C)[C@H]1[C@H]2/C=C/c1ccc(-c2cccc(C(N)=O)c2)cn1`, affinity in data set [1] was put at a Ki of 367 nM.
As for `CCOC(=O)N(C)[C@@H]1CC[C@@H]2[C@@H](C1)C[C@H]1C(=O)O[C@H](C)[C@H]1[C@H]2/C=C/c1ccc(-c2cccc(F)c2)cn1`, the Ki (commonly the equilibrium dissociation constant of an inhibitor or competing ligand from its target) in data set [1] came out at 4.1 nM. In addition, the result in the data set on Platelet [2] was inactive.
As for `C[C@H]1OC(=O)[C@@H]2C[C@@H]3C[C@H](N)CC[C@H]3[C@H](/C=C/c3ccc(-c4cccc(F)c4)cn3)[C@H]12`, in data set [1], the Ki is 20 nM. In the data set with Platelet [3], the inhibition in vivo (in general, the drop in the measured response relative to a control, in per cent) at 1 mg/kg was under 40%.
For `CC(=O)N[C@@H]1CC[C@@H]2[C@@H](C1)C[C@H]1C(=O)O[C@H](C)[C@H]1[C@H]2/C=C/c1ccc(-c2cccc(C(F)(F)F)c2)cn1`, in data set [1], the affinity, expressed as Ki, was 30 nM.
The same measure, in the same setting: with `C[C@H]1OC(=O)[C@@H]2C[C@@H]3C[C@H](NC(=O)OC(C)(C)C)CC[C@H]3[C@H](/C=C/c3ccc(-c4cccc(C#N)c4)cn3)[C@H]12` the figure was 44 nM.
Consider `CCOC(=O)N[C@@H]1CC[C@@H]2[C@@H](C1)C[C@H]1C(=O)O[C@H](C)[C@H]1[C@H]2/C=C/c1ccc(-c2cccc(C#N)c2)cn1`, for which the affinity in data set [1], expressed as Ki, was 1.8 nM. The same molecule gave an inhibition in vivo at 0.1 mg/kg with Platelet [4] of 80%. Further, the exposure AUC(0-t) (in general, exposure summed from dosing to a finite time, without extrapolation to infinity) at 24 h in data set [5] worked out at 2.08 µM·h. In addition, in data set [6], the concentration peaked (Cmax) at 200 nM.
Turning to `CCC(=O)N[C@@H]1CC[C@@H]2[C@@H](C1)C[C@H]1C(=O)O[C@H](C)[C@H]1[C@H]2/C=C/c1ccc(-c2cccc(F)c2)cn1`, the inhibition constant Ki in data set [1] was 6.4 nM. In the data set with Platelet [7], this molecule registered an inhibition in vivo at 1 mg/kg of 100%. This molecule gave an AUC(0-t) at 24 h in [8] of 11.4 µM·h. Besides, in data set [9], the Cmax – broadly, the highest concentration seen after dosing – came to 750 nM.
The like results for `C[C@H]1OC(=O)[C@@H]2C[C@@H]3C[C@H](NC(=O)C4CC4)CC[C@H]3[C@H](/C=C/c3ccc(-c4cccc(F)c4)cn3)[C@H]12` were, in that order, 6.5 nM, 100%, 5.53 µM·h and 390 nM.
Turning to `CCNC(=O)N[C@@H]1CC[C@@H]2[C@@H](C1)C[C@H]1C(=O)O[C@H](C)[C@H]1[C@H]2/C=C/c1ccc(-c2cccc(F)c2)cn1`, affinity in [1] was put at a Ki of 4.8 nM.
For `C[C@H]1OC(=O)[C@@H]2C[C@@H]3C[C@H](NS(C)(=O)=O)CC[C@H]3[C@H](/C=C/c3ccc(-c4cccc(F)c4)cn3)[C@H]12`, the Ki in data set [1] is 11 nM. The same molecule yielded an inhibition in vivo at 1 mg/kg in the data set on Platelet [3] of under 40%.
The molecule `CCOC(=O)N[C@@H]1CC[C@@H]2[C@@H](C1)C[C@H]1C(=O)O[C@H](C)[C@H]1[C@H]2/C=C/c1ccc(-c2cc(F)cc(F)c2)cn1` yielded a Ki in [1] of 5.9 nM.
The molecule `CNC(=O)N[C@@H]1CC[C@@H]2[C@@H](C1)C[C@H]1C(=O)O[C@H](C)[C@H]1[C@H]2/C=C/c1ccc(-c2cccc(F)c2)cn1` yielded a Ki in data set [1] of 4.4 nM. In the data set with Platelet [7], this molecule yielded an inhibition in vivo at 1 mg/kg of 55%. For the same molecule, the AUC(0-t) at 24 h in [8] was 2.63 µM·h. The molecule also registered a peak concentration (Cmax) in [9] of 260 nM.
As for `CCOC(=O)N[C@@H]1CC[C@@H]2[C@@H](C1)C[C@H]1C(=O)O[C@H](C)[C@H]1[C@H]2/C=C/c1ccc(-c2cccc(OC)c2)cn1`, the Ki in data set [1] was 5.9 nM.
`CCOC(=O)N[C@@H]1CC[C@@H]2[C@@H](C1)C[C@H]1C(=O)O[C@H](C)[C@H]1[C@H]2/C=C/c1ccc(-c2cccc(Cl)c2)cn1` displayed a Ki in data set [1] of 11 nM.
The same measure, in the same setting: with `COC(=O)N[C@@H]1CC[C@@H]2[C@@H](C1)C[C@H]1C(=O)O[C@H](C)[C@H]1[C@H]2/C=C/c1ccc(-c2cccc(F)c2)cn1` the figure was 6.1 nM; with `CCCOC(=O)N[C@@H]1CC[C@@H]2[C@@H](C1)C[C@H]1C(=O)O[C@H](C)[C@H]1[C@H]2/C=C/c1ccc(-c2cccc(F)c2)cn1`, 17 nM.
For `CCOC(=O)N[C@@H]1CC[C@@H]2[C@@H](C1)C[C@H]1C(=O)O[C@H](C)[C@H]1[C@H]2/C=C/c1ccc(-c2cccc(C)c2F)cn1`, in data set [1], the inhibition constant Ki stood at 11 nM. In the data set with Platelet [7], this molecule had an inhibition in vivo at 1 mg/kg of 100%. Moreover, the AUC(0-t) at 24 h in [8] came to 0.13 µM·h. Besides, in [9], the concentration peaked (Cmax) at 20 nM.
Consider `C[C@H]1OC(=O)[C@@H]2C[C@@H]3C[C@H](NS(C)(=O)=O)CC[C@H]3[C@H](/C=C/c3ccc(-c4cccc(C(F)(F)F)c4)cn3)[C@H]12`, for which, in data set [1], the Ki was 10 nM.
Turning to `CC(=O)N[C@@H]1CC[C@@H]2[C@@H](C1)C[C@H]1C(=O)O[C@H](C)[C@H]1[C@H]2/C=C/c1ccc(-c2cccc(F)c2)cn1`, in [1], the Ki amounted to 6.2 nM.
`CCCN(C(=O)OCC)[C@@H]1CC[C@@H]2[C@@H](C1)C[C@H]1C(=O)O[C@H](C)[C@H]1[C@H]2/C=C/c1ccc(-c2cccc(F)c2)cn1` returned a Ki in data set [1] of 89 nM.
The same measure, in the same setting: with `CCOC(=O)N(C)[C@@H]1CC[C@@H]2[C@@H](C1)C[C@H]1C(=O)O[C@H](C)[C@H]1[C@H]2/C=C/c1ccc(-c2cccc(C(F)(F)F)c2)cn1` the figure was 3.7 nM.
As to `CCOC(=O)N[C@@H]1CC[C@@H]2[C@@H](C1)C[C@H]1C(=O)O[C@H](C)[C@H]1[C@H]2/C=C/c1ccc(-c2ccccc2F)cn1`, the affinity in data set [1] corresponds to a Ki of 11 nM. Further, in the data set with Platelet [4], 0.1 mg/kg produced 80% inhibition in vivo. In [5], this molecule registered an AUC(0-t) at 24 h of 0.2 µM·h. The same molecule showed a Cmax in data set [6] of 24 nM.
